Results: patent publication US10532066B2, “Surfactant lipids, compositions thereof, and uses thereof” (National Jewish Health, priority 2007, dated 2020)
“Also recorded” adds a separate entry of the source.

Columns and labels:
[1] = test system: differentiated U937 cells; test: LPS-induced TNF-α production by U937 cells in serum free media (without LBP); assay type: cell-based, human; details: for LPS-induced synthesis and secretion of TNF-α in serum free media: LPS 10 ng/ml, 6 h, without LBP; for potency as LPS antagonist without LBP: serum free media compared with serum
Description: U937 cells were induced to differentiate by incubation in medium containing 10 nM of phorbol myristate acetate (PMA) for 48 h. The cells (1.3×10^5/well) were placed on 96-well plates and further incubated in the absence of PMA for 24 h in RPMI 1640 medium containing 10% BGS. After the cells were washed with PBS, the indicated concentration of phospholipids was preincubated with the cells in RPMI without serum for 30 min before adding LPS. The indicated amount of LPS was then added into the well and incubated for 6 h at 37° C. with 5% CO2. The culture medium was collected and assayed for TNF-α secretion using an ELISA kit (Invitrogen).

CD14 binding to LPS = biological target: T1, CD14 binding to LPS (Homo sapiens, UniProt P08571); test: Phospholipid competition for CD14 binding to solid phase LPS; details: CD14 1 μg/ml, liposomes 20 μg/ml
T1 construct: purchased Cell Sciences Inc. (Canton, Mass.)
T1 sequence (P08571 20-345): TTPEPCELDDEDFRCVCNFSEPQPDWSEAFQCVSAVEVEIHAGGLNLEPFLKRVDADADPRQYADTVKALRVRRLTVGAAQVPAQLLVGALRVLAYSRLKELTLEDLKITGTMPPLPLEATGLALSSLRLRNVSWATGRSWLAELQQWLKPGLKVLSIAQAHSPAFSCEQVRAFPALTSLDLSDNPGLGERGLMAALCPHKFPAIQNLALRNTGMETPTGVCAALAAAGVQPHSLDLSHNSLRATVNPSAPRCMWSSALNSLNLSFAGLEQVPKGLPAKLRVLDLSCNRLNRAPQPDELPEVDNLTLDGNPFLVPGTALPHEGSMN
Description: (§1) FIG. 13. PG Inhibits CD14 binding to solid phase LPS. (A) Various types of PG were coated onto microtiter plates, and incubated with CD14 (1 μg/ml) at 37° C. for 1 h. […] Types of PG shown on the graph are: dilauroylphosphatidylglycerol (DLPG), dimyristoyl-phosphatidylglycerol (DMPG), dipalmitoylphosphatidylglycerol (DPPG), and 16:0/18:1; palmitoyl-oleoyl-phosphatidylglycerol (POPG). […] The binding of CD14 to LPS was detected using anti-CD14 monoclonal antibody. The ELISA based absorbance of CD14 bound to LPS was defined as 100%.

human CD14 = biological target: T2, human CD14 (Homo sapiens, UniProt P08571); test: CD14 binding to solid phase phospholipids (ELISA); details: for direct binding of CD14 to molecular species of PG: CD14 1 μg/ml, POPG = 100%; for binding of CD14 to solid phase lipid: varying CD14, 37° C. 1 h
T2 construct: purchased Cell Sciences Inc. (Canton, Mass.)
T2 sequence (P08571 20-345): T1 sequence (P08571 20-345)
Description: FIG. 12. CD14 binds to solid phase lipids. […] Nonspecific binding was blocked with 20 mM Tris buffer (pH 7.4) containing 0.15 M NaCl, 5 mM CaCl2 (in the upper panel) or 2 mM EGTA (in the lower panel), and 5% (wt/vol) BSA (buffer A).
as §1
The wells were then washed with 20 mM Tris buffer (pH 7.4) containing 0.15 M NaCl and 5 mM CaCl2 or 2 mM EGTA (buffer B), and 1 μg/ml anti-human CD14 IgG or anti-His antibody (50 μl/well) in buffer A was added and incubated overnight at 4° C., followed by the incubation with horseradish peroxidase (HRP)-labeled anti-mouse IgG (1:5000) for 1 h. After washing the wells with buffer B, the peroxidase reaction was finally performed using o-phenylenediamine as a substrate. The binding of CD14 or MD-2 to phospholipids was detected by measuring absorbance at 490 nm.

[2] = test system: MAPK, IkBα and MKP-1 in differentiated U937 cells; test: Western blot of LPS induced MAPK and IkBα phosphorylation and MKP-1 expression; assay type: cell-based, human; details: LPS 10 ng/ml; for LPS-induced MKP-1 expression / LPS-induced phosphorylation of p38, ERK, JNK and IkBα: liposomes 200 μg/ml; for LPS-induced phosphorylation of p38, ERK, JNK and IkBα: 15-60 min
Description: FIG. 4. POPG inhibits LPS induced MAPK and IkBα phosphorylation and MKP-1 expression. POPG liposomes (200 μg/ml) were added to monolayer cultures of differentiated U937 cells that received either no treatment or 10 ng/ml LPS. After incubating for the indicated time, cells were lysed using lysis buffer containing detergent, protease inhibitors and phosphatase inhibitors. Aliquots with 15 μg of protein from lysates were separated by SDS-PAGE and transferred onto nitrocellulose membranes. The amount of phosphorylation was detected using phospho-specific antibodies to p38MAPK, p42/p44 ERK, p46-p54 INK and phosphorylated IkBα. To determine equal loading of proteins between samples, the membranes were probed with rabbit polyclonal p46 INK, p42/p44 ERK, p38MAPK and IkBα antibodies. The expression of MKP-1 was detected with a polyclonal MKP-1 antibody.
FIG. 5. Quantification of POPG inhibition of LPS induced signaling. Western blot analysis as described in FIG. 4 was performed three or four times on separate samples and the intensity of phospho-p38, phospho-IkBα, phosphoERK, phospho JNK, phospho IkBα, total IkBα and MKP-1 was calculated using NIH Image J1.34 software.
FIG. 6. Molecular specificity in POPG action. Liposomes composed of POPC, DPPG or POPG were added to monolayer cultures of differentiated U937 cells that received either no treatment or 10 ng/ml LPS, as indicated. After 30 or 60 min cells were lysed and 15 μg of cellular protein from cultures was separated by SDS-PAGE and transferred onto nitrocellulose membranes. Phosphorylated and nonphosphorylated proteins were detected as described in FIG. 4.
FIG. 7. Comparative quantification of lipid dependent antagonism of LPS signaling. Western blot analysis was performed as described in FIG. 6 in three independent experiments. The intensity of the phosphorylated (p38, ERK, JNK and IkBα) and nonphosphorylated (total IkBα and MKP-1) proteins of interest was measured using NIH Image 0.1.34 software. Significance—*p<0.05, ** p<0.01.
Monolayers of unstimulated or stimulated macrophages were lysed on ice with 250 μl of ice-cold lysis buffer [50 mM Tris.HCl, pH 8.0, containing 137 mM NaCl, 10% (vol/vol) glycerol, 1% (vol/vol) Nonidet P-40, 1 mM NaF, 10 μg/ml leupeptin, 10 μg/ml aprotinin, 2 mM Na3VO4, and 1 mM phenylmethylsulfonyl fluoride (29). Insoluble nuclear material was pelleted by centrifugation at 14,000×g for 10 min at 4° C. and the supernatants were collected. 15 μg of protein from lysates was separated by SDS-PAGE and transferred onto nitrocellulose membranes (30). The blots were then washed in Tris-Tween-buffered saline [TTBS, 20 mM Tris-HCl buffer, pH 7.6, containing 137 mM NaCl and 0.05% (vol/vol) Tween 20], blocked with 5% (wt/vol) nonfat dry milk for 1 hour, and probed according to the method described by Towbin et. al. (30) with phospho-specific antibodies to p46-p54 JNK, p42/p44 ERK, and p38MAPK, or IkBα or with a polyclonal MKP-1 or IkBα antibodies in 5% (wt/vol) BSA dissolved in TTBS. With the use of horseradish peroxidase-conjugated secondary anti-rabbit or anti-mouse antibody, bound antibodies were detected by enhanced chemiluminescence (ECL plus, Amersham Biosciences, Piscataway, N.J.). To determine loading of proteins between samples, the membranes were probed with rabbit polyclonal p46 JNK, p42/p44 ERK, and p38MAPK antibodies.

Compound: CCCCCCCCCCCCCC(=O)OCC(COP(=O)(O)OCC(O)CO)OC(=O)CCCCCCCCCCCCC (centres unmarked) [DMPG, dimyristoyl-phosphatidylglycerol]
- LPS-induced synthesis and secretion of TNF-α in serum free media [1]: still inhibited
- potency as LPS antagonist without LBP [1]: continues to remain high
- inhibition of CD14 binding to solid phase LPS (CD14 binding to LPS): most effective inhibitors
- direct binding of CD14 to molecular species of PG (human CD14): strongest direct binding interactions

Compound: CCCCCCCCCCCCCCCC(=O)OC[C@H](COP(=O)([O-])OCC[N+](C)(C)C)OC(=O)CCCCCCCCCCCCCCC [DPPC, dipalmitoyl-phosphatidylcholine, reference compound]
- binding of CD14 relative to the levels of POPG binding (human CD14; 1.25 nmole lipid per well): approximately 30%

Compound: CCCCCCCCCCCCCCCC(=O)OCC(COP(=O)(O)OCC(O)CO)OC(=O)CCCCCCCCCCCCCCC (centres unmarked) [DPPG, dipalmitoyl-phosphatidylglycerol, reference compound]
- inhibition of CD14 binding to solid phase LPS (CD14 binding to LPS): weakly competes
- direct binding of CD14 to molecular species of PG (human CD14): nearly the same extent as POPG and DMPG
- LPS-induced MKP-1 expression [2]: neither POPC nor DPPG exerted a significant effect
- LPS-induced phosphorylation of p38, ERK, JNK and IkBα [2]: neither POPC nor DPPG exerted a significant effect

Compound: CCCCCCCC/C=C\CCCCCCCC(=O)O[C@H](COC(=O)CCCCCCCCCCCCCCC)COP(=O)(O)OCC(O)CO (some centres unmarked) [POPG, palmitoyl-oleoyl-phosphatidylglycerol]
- LPS-induced synthesis and secretion of TNF-α in serum free media [1]: still inhibited
- potency as LPS antagonist without LBP [1]: modestly diminished
- inhibition of CD14 binding to solid phase LPS (CD14 binding to LPS): almost completely inhibits; also recorded: most effective inhibitors
- binding of CD14 to solid phase lipid (human CD14; 1.25 nmole lipid per well): strongly bound
- direct binding of CD14 to molecular species of PG (human CD14): strongest direct binding interactions
- LPS-induced reduction (degradation) of steady state IkBα ([2]; POPG 200 μg/ml): abrogated the reduction; also recorded: remained constant
- LPS-induced MKP-1 expression [2]: blocked the synthesis; also recorded: reduced to control levels; also recorded: potently inhibited
- LPS-induced phosphorylation of p38, ERK, JNK and IkBα [2]: reduced; also recorded: eliminated the phosphorylation; also recorded: significantly reduces; also recorded: potently inhibited

Compound: phosphatidylinositol [PI]
- LPS-induced synthesis and secretion of TNF-α in serum free media [1]: still inhibited
- potency as LPS antagonist without LBP [1]: modestly diminished
- inhibition of CD14 binding to solid phase LPS (CD14 binding to LPS): fails to compete
- binding of CD14 to solid phase lipid (human CD14; 1.25 nmole lipid per well): strongly bound
- LPS-induced MKP-1 expression [2]: reduced
- LPS-induced phosphorylation of p38, ERK, JNK and IkBα [2]: reduced
